In patent US12213969B2, “2-spiro-5- and 6-hydroxamic acid indanes as HDAC inhibitors” (Valo Health, Inc., priority 2016, dated 2025):

Target: T1, Full length human recombinant HDAC6 protein (Homo sapiens, UniProt Q9UBN7)
T1 construct: made in house
T1 sequence (Q9UBN7 1-1215): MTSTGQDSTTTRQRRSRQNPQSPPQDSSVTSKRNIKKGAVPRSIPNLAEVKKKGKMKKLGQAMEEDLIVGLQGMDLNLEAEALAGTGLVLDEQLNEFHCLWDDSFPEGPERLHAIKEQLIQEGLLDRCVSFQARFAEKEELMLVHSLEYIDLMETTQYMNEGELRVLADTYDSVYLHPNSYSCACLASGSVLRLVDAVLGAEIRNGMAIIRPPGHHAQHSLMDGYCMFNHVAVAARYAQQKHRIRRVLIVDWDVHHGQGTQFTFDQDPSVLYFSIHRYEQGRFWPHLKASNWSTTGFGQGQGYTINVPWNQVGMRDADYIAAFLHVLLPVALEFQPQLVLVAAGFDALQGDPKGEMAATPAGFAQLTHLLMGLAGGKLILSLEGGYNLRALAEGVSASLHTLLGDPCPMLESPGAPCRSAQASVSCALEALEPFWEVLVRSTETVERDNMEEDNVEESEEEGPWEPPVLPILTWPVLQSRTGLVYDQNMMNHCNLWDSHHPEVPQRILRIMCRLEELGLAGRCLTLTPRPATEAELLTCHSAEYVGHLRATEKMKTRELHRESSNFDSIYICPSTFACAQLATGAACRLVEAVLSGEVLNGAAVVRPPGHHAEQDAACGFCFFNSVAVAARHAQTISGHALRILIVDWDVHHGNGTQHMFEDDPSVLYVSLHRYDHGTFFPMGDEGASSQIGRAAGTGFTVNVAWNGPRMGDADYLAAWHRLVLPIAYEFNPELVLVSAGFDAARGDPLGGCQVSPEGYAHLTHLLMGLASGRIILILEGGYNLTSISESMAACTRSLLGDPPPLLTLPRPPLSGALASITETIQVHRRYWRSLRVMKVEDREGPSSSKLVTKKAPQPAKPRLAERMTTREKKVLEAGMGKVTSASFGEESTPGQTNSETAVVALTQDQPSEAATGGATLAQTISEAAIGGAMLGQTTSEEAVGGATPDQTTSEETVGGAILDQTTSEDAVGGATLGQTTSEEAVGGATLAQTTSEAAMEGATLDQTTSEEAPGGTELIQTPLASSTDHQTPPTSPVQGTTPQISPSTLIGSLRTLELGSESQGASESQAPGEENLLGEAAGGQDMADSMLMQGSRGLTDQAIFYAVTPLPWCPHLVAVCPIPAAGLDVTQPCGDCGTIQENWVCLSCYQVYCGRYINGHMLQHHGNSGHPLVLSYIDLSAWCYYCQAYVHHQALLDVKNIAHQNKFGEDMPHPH
Assay: In vitro histone deacetylase assay: enzymatic HDAC6 electrophoretic mobility shift assay
Type: biochemical
Conditions: peptide substrate RHKK(Ac)-NH2 2 μM, enzyme 1 nM, 25° C., 12 concentrations; read-out: HDAC6 activity range (IC50)
Experimental: The enzymatic HDAC6 assay was performed using electrophoretic mobility shift assay. Full length human recombinant HDAC6 protein was expressed in baculoviral system and purified by affinity chromatography. The enzymatic reactions were assembled in 384 well plates in a total volume of 25 μL in a reaction buffer composing: 100 mM HEPES, pH 7.5, 25 mM KCl, 0.1% bovine serum albumin, 0.01% Triton X-100, 1% DMSO (from compounds) 2 μM of the fluorescently labeled peptide substrate and enzyme. The enzyme was added at a final concentration of 1 nM. The peptide substrate RHKK(Ac)-NH2 was used. The compounds were tested at 12 concentrations spaced by 3× dilution intervals. Negative control samples (0%-inhibition in the absence of inhibitor) and positive control samples (100%-inhibition) were assembled in replicates of four in each assay plate. The reactions were incubated at 25° C. and quenched by the addition of 45 μL of termination buffer (100 mM HEPES, pH 7.5, 0.01% Triton X-100, 0.05% SDS).
The terminated assay plates were analyzed on LabChip® 3000 microfluidic electrophoresis instrument (Perkin Elmer/Caliper Life Sciences). The fluorescence intensity of the electrophoretically separated de-acetylated product and substrate peptide was measured. Activity in each sample was determined as the product to sum ratio (PSR): P/(S+P), where P is the peak height of the product peptide and S is the peak height of the substrate peptide. Percent inhibition (Pinh) is determined using the following equation:
Pinh=(PSR0%−PSRinh)/(PSR0%−PSR100%)*100, where PSRinh is the product sum ratio in the presence of inhibitor, PSR0% is the average product sum ration in the absence of inhibitor and PSR100% is the average product sum ratio in 100%-inhibition control samples. The IC50 values of inhibitors were determined by fitting the %-inhibition curves with 4 parameter dose-response model using XLfit 4 software.
As set forth in Table-7, below, IC50 values are defined as follows: IC50≤0.01 μM (+++); IC50>0.01 μM and ≤0.05 μM (++); IC50>0.05 μM (+).

Row | IC50 [nM] | Compound
1 | 10 to 50 | CC(=O)N1CC[C@]2(Cc3ccc(C(=O)NO)cc3C2)C1 [Compound I-28, (R)-1′-acetyl-N-hydroxy-1,3-dihydrospiro[indene-2,3′-pyrrolidine]-5-carboxamide]
2 | 10 to 50 | O=C(NO)c1ccc2c(c1)C[C@]1(CCCN(Cc3ccccc3)C1=O)C2 [Compound I-35, (S)-1′-benzyl-N-hydroxy-2′-oxo-1,3-dihydrospiro[indene-2,3′-piperidine]-5-carboxamide]
3 | ≤ 10 | O=C(NO)c1ccc2c(c1)C[C@@]1(CCN(c3cccnc3)C1=O)C2 [Compound I-17, (R)—N-hydroxy-2′-oxo-1′-(pyridin-3-yl)-1,3-dihydrospiro[indene-2,3′-pyrrolidine]-5-carboxamide]
4 | ≤ 10 | O=C(NO)c1ccc2c(c1)C[C@@]1(CCCN(Cc3ccccc3)C1=O)C2 [Compound I-34, (R)-1′-benzyl-N-hydroxy-2′-oxo-1,3-dihydrospiro[indene-2,3′-piperidine]-5-carboxamide]
5 | 10 to 50 | CN1CC[C@@]2(Cc3ccc(C(=O)NO)cc3C2)C1=O [Compound I-2, (S)—N-hydroxy-1′-methyl-2′-oxo-1,3-dihydrospiro[indene-2,3′-pyrrolidine]-5-carboxamide]
6 | 10 to 50 | CN1CCC[C@@]2(Cc3ccc(C(=O)NO)cc3C2)C1=O [Compound I-33, (S)—N-hydroxy-1′-methyl-2′-oxo-1,3-dihydrospiro[indene-2,3′-piperidine]-5-carboxamide]
7 | > 50 | CC(C)N1CC[C@@]2(Cc3ccc(C(=O)NO)cc3C2)C1=O [Compound I-4, (S)—N-hydroxy-1′-isopropyl-2′-oxo-1,3-dihydrospiro[indene-2,3′-pyrrolidine]-5-carboxamide]
8 | ≤ 10 | O=C(NO)c1ccc2c(c1)C[C@@]1(CCN(C(=O)c3ccccc3)C1)C2 [Compound I-30, (R)-1′-benzoyl-N-hydroxy-1,3-dihydrospiro[indene-2,3′-pyrrolidine]-5-carboxamide]
9 | 10 to 50 | CC(C)CN1CC[C@]2(Cc3ccc(C(=O)NO)cc3C2)C1=O [Compound I-7, (R)—N-hydroxy-1′-isobutyl-2′-oxo-1,3-dihydrospiro[indene-2,3′-pyrrolidine]-5-carboxamide]
